Reference: the CheMixHub viscosity set
± gives the uncertainty stated by the source.

Experiment: xn = mol fraction of the nth substance listed

CCNCC + CCCCCCCCCO
viscosity [mPa·s], 100 kPa
Details	x1 = 0.0799	x1 = 0.1586	x1 = 0.2389	x1 = 0.3485	x1 = 0.4391	x1 = 0.5594	x1 = 0.649	x1 = 0.7395	x1 = 0.8499	x1 = 0.9397
293.15 K	10.36 ± 0.83	9.36 ± 0.75	8.35 ± 0.67	7.05 ± 0.57	5.99 ± 0.48	4.66 ± 0.37	3.71 ± 0.3	2.79 ± 0.22	1.71 ± 0.14	0.87 ± 0.07
303.15 K	7.11 ± 0.57	6.4 ± 0.51	5.7 ± 0.46	4.78 ± 0.38	4.05 ± 0.33	3.14 ± 0.25	2.5 ± 0.2	1.88 ± 0.15	1.17 ± 0.1	0.63 ± 0.05
313.15 K	5.05 ± 0.41	4.53 ± 0.36	4.03 ± 0.32	3.37 ± 0.27	2.85 ± 0.23	2.21 ± 0.18	1.77 ± 0.14	1.34 ± 0.11	0.85 ± 0.07	0.49 ± 0.04
323.15 K	3.71 ± 0.3	3.34 ± 0.27	2.97 ± 0.24	2.49 ± 0.2	2.12 ± 0.17	1.65 ± 0.13	1.33 ± 0.11	1.02 ± 0.08	0.67 ± 0.05	0.4 ± 0.03

CCCC(=O)OC + Clc1ccccc1
viscosity [mPa·s], 101.3 kPa
Details	308.15 K	318.15 K
x1 = 0.0851	0.648 ± 0.006	0.601 ± 0.005
x1 = 0.1025	0.647 ± 0.006	0.6 ± 0.005
x1 = 0.2257	0.63 ± 0.005	0.588 ± 0.005
x1 = 0.3019	0.621 ± 0.005	0.58 ± 0.005
x1 = 0.4004	0.607 ± 0.005	0.567 ± 0.005
x1 = 0.5036	0.593 ± 0.005	0.552 ± 0.005
x1 = 0.5911	0.58 ± 0.005	0.54 ± 0.005
x1 = 0.6834	0.564 ± 0.005	0.527 ± 0.005
x1 = 0.8223	0.541 ± 0.005	0.504 ± 0.005
x1 = 0.8997	0.525 ± 0.005	0.489 ± 0.004
x1 = 0.9522	0.515 ± 0.005	0.479 ± 0.004

CCCC(=O)OC + CCCCCCC
Details	viscosity [mPa·s]
293.15 K, 101.33 kPa, x1 = 0.08428	0.408 ± 0.003
293.15 K, 101.33 kPa, x1 = 0.1292	0.409 ± 0.003
293.15 K, 101.33 kPa, x1 = 0.1965	0.413 ± 0.003
293.15 K, 101.33 kPa, x1 = 0.2883	0.419 ± 0.003
293.15 K, 101.33 kPa, x1 = 0.3831	0.429 ± 0.003
293.15 K, 101.33 kPa, x1 = 0.4997	0.445 ± 0.003
293.15 K, 101.33 kPa, x1 = 0.5976	0.462 ± 0.004
293.15 K, 101.33 kPa, x1 = 0.6939	0.483 ± 0.004
293.15 K, 101.33 kPa, x1 = 0.7977	0.51 ± 0.004
293.15 K, 101.33 kPa, x1 = 0.905	0.542 ± 0.004
293.15 K, 101.33 kPa, x1 = 0.9304	0.552 ± 0.004
303.15 K, 101.33 kPa, x1 = 0.05501	0.368 ± 0.003
303.15 K, 101.33 kPa, x1 = 0.1135	0.369 ± 0.003
303.15 K, 101.33 kPa, x1 = 0.1897	0.372 ± 0.003
303.15 K, 101.33 kPa, x1 = 0.2828	0.377 ± 0.003
303.15 K, 101.33 kPa, x1 = 0.4056	0.388 ± 0.003
303.15 K, 101.33 kPa, x1 = 0.5087	0.4 ± 0.003
303.15 K, 101.33 kPa, x1 = 0.5969	0.413 ± 0.003
303.15 K, 101.33 kPa, x1 = 0.6951	0.431 ± 0.003
303.15 K, 101.33 kPa, x1 = 0.803	0.454 ± 0.004
303.15 K, 101.33 kPa, x1 = 0.9043	0.481 ± 0.004
303.15 K, 101.33 kPa, x1 = 0.9349	0.49 ± 0.004
308.15 K, 101.3 kPa, x1 = 0.0525	0.357 ± 0.004
308.15 K, 101.3 kPa, x1 = 0.156	0.366 ± 0.004
308.15 K, 101.3 kPa, x1 = 0.1959	0.369 ± 0.004
308.15 K, 101.3 kPa, x1 = 0.2969	0.379 ± 0.004
308.15 K, 101.3 kPa, x1 = 0.4989	0.406 ± 0.004
308.15 K, 101.3 kPa, x1 = 0.5971	0.421 ± 0.004
308.15 K, 101.3 kPa, x1 = 0.7995	0.459 ± 0.004
308.15 K, 101.3 kPa, x1 = 0.8524	0.47 ± 0.004
308.15 K, 101.3 kPa, x1 = 0.9236	0.487 ± 0.004
308.15 K, 101.3 kPa, x1 = 0.9531	0.494 ± 0.005
308.15 K, 101.3 kPa, x2 = 0.0175	0.501 ± 0.005
313.15 K, 101.33 kPa, x1 = 0.06751	0.334 ± 0.003
313.15 K, 101.33 kPa, x1 = 0.1218	0.335 ± 0.003
313.15 K, 101.33 kPa, x1 = 0.1984	0.338 ± 0.003
313.15 K, 101.33 kPa, x1 = 0.2903	0.342 ± 0.003
313.15 K, 101.33 kPa, x1 = 0.4044	0.351 ± 0.003
313.15 K, 101.33 kPa, x1 = 0.5173	0.363 ± 0.003
313.15 K, 101.33 kPa, x1 = 0.5954	0.373 ± 0.003
313.15 K, 101.33 kPa, x1 = 0.6931	0.388 ± 0.003
313.15 K, 101.33 kPa, x1 = 0.8053	0.409 ± 0.003
313.15 K, 101.33 kPa, x1 = 0.9053	0.432 ± 0.003
313.15 K, 101.33 kPa, x1 = 0.9355	0.44 ± 0.003
318.15 K, 101.3 kPa, x1 = 0.0525	0.326 ± 0.003
318.15 K, 101.3 kPa, x1 = 0.156	0.337 ± 0.003
318.15 K, 101.3 kPa, x1 = 0.1959	0.341 ± 0.003
318.15 K, 101.3 kPa, x1 = 0.2969	0.352 ± 0.004
318.15 K, 101.3 kPa, x1 = 0.4989	0.379 ± 0.004
318.15 K, 101.3 kPa, x1 = 0.5971	0.397 ± 0.004
318.15 K, 101.3 kPa, x1 = 0.7995	0.427 ± 0.004
318.15 K, 101.3 kPa, x1 = 0.8524	0.437 ± 0.004
318.15 K, 101.3 kPa, x1 = 0.9236	0.451 ± 0.004
318.15 K, 101.3 kPa, x1 = 0.9531	0.458 ± 0.004
318.15 K, 101.3 kPa, x2 = 0.0175	0.465 ± 0.004

Oc1ccc2ccccc2c1 + CCCO
viscosity [mPa·s], 101 kPa
Details	x1 = 0.04	x1 = 0.08	x1 = 0.12	x1 = 0.16	x1 = 0.2
293.15 K	2.6 ± 0.059	3.004 ± 0.068	3.529 ± 0.079	4.172 ± 0.092	4.954 ± 0.11
303.15 K	2.025 ± 0.047	2.288 ± 0.052	2.658 ± 0.06	3.1 ± 0.07	3.63 ± 0.081
313.15 K	1.635 ± 0.039	1.803 ± 0.042	2.062 ± 0.048	2.37 ± 0.054	2.764 ± 0.062
323.15 K	1.326 ± 0.034	1.447 ± 0.036	1.636 ± 0.039	1.869 ± 0.044	2.168 ± 0.05

CCCCCCCCNCCCCCCCC + C1CCCCC1
303.15 K, 101 kPa
Details	viscosity [mPa·s]
x2 = 0.1052	3.382 ± 0.068
x2 = 0.2021	3.137 ± 0.063
x2 = 0.3028	2.95 ± 0.059
x2 = 0.4044	2.591 ± 0.052
x2 = 0.5039	2.306 ± 0.046
x2 = 0.6016	1.976 ± 0.04
x2 = 0.7009	1.653 ± 0.033
x2 = 0.8006	1.364 ± 0.027
x2 = 0.9216	1.055 ± 0.021

CC(C)C=O + CCCC=O
viscosity [mPa·s], 100 kPa
Details	293.5 K	293.51 K	317.08 K	318.11 K
x1 = 0.12	–	23.21 ± 0.7	17.25 ± 0.52	–
x1 = 0.2	2.307 ± 0.087	–	–	1.698 ± 0.073

CN(CCO)CCO + CCCCn1cc[n+](C)c1.F[B-](F)(F)F
Details	viscosity [mPa·s]
323.15 K, 101 kPa, x2 = 0.6997	20.65 ± 1.2

COCCOCCOCCOC + CCOC(C)=O
viscosity [mPa·s], 101.3 kPa
Details	298.15 K	308.15 K	318.15 K
x1 = 0.0071	0.436 ± 0.006	0.391 ± 0.006	0.358 ± 0.006
x1 = 0.0233	0.454 ± 0.007	0.406 ± 0.006	0.369 ± 0.006
x1 = 0.0549	0.488 ± 0.007	0.434 ± 0.006	0.395 ± 0.006
x1 = 0.0836	0.522 ± 0.007	0.464 ± 0.007	0.417 ± 0.006
x1 = 0.1198	0.564 ± 0.008	0.498 ± 0.007	0.447 ± 0.007
x1 = 0.1684	0.626 ± 0.008	0.548 ± 0.008	0.489 ± 0.007
x1 = 0.2665	0.752 ± 0.01	0.651 ± 0.009	0.574 ± 0.008
x1 = 0.3217	0.833 ± 0.011	0.717 ± 0.009	0.624 ± 0.008
x1 = 0.3905	0.931 ± 0.012	0.796 ± 0.01	0.69 ± 0.009
x1 = 0.4265	0.985 ± 0.012	0.841 ± 0.011	0.725 ± 0.01
x1 = 0.4683	1.058 ± 0.013	0.895 ± 0.012	0.769 ± 0.01
x1 = 0.522	1.141 ± 0.014	0.963 ± 0.012	0.823 ± 0.011
x1 = 0.5558	1.196 ± 0.015	1.002 ± 0.013	0.856 ± 0.011
x1 = 0.6015	1.267 ± 0.016	1.058 ± 0.013	0.903 ± 0.012
x1 = 0.6458	1.34 ± 0.017	1.119 ± 0.014	0.949 ± 0.012
x1 = 0.725	1.479 ± 0.018	1.223 ± 0.015	1.028 ± 0.013
x1 = 0.741	1.504 ± 0.019	1.244 ± 0.016	1.045 ± 0.013
x1 = 0.7798	1.572 ± 0.02	1.297 ± 0.016	1.085 ± 0.014
x1 = 0.8318	1.616 ± 0.05	1.366 ± 0.017	1.139 ± 0.015
x1 = 0.8823	1.754 ± 0.022	1.433 ± 0.018	1.194 ± 0.015
x1 = 0.9348	1.846 ± 0.023	1.51 ± 0.019	1.247 ± 0.016
x1 = 0.9606	1.89 ± 0.024	1.542 ± 0.02	1.276 ± 0.016

Nc1ccccc1 + CCCCCCCCO
viscosity [mPa·s], 100 kPa
Details	x1 = 0.0862	x1 = 0.1575	x1 = 0.2382	x1 = 0.3514	x1 = 0.4471	x1 = 0.5637	x1 = 0.6558	x1 = 0.7476	x1 = 0.8555	x1 = 0.9421
293.15 K	8.01 ± 0.64	7.27 ± 0.58	6.6 ± 0.53	5.83 ± 0.47	5.28 ± 0.42	4.66 ± 0.37	4.4 ± 0.35	4.19 ± 0.34	4.03 ± 0.32	4.14 ± 0.33
303.15 K	5.66 ± 0.45	5.15 ± 0.41	4.7 ± 0.38	4.15 ± 0.33	3.77 ± 0.3	3.36 ± 0.27	3.15 ± 0.25	3.03 ± 0.24	2.93 ± 0.24	3 ± 0.24
313.15 K	4.11 ± 0.33	3.75 ± 0.3	3.47 ± 0.28	3.1 ± 0.25	2.85 ± 0.23	2.57 ± 0.21	2.43 ± 0.2	2.34 ± 0.19	2.3 ± 0.18	2.36 ± 0.19
323.15 K	3.09 ± 0.25	2.85 ± 0.23	2.63 ± 0.21	2.37 ± 0.19	2.18 ± 0.17	1.98 ± 0.16	1.89 ± 0.15	1.83 ± 0.15	1.81 ± 0.15	1.86 ± 0.15
